Where two headings read alike, the source gives them in different places.
Tests used:
[1] = target: T1, human H3 receptor (Homo sapiens, UniProt Q9Y5N1); test: Human H3 radioligand binding ([3H]-N-alpha-methylhistamine, SPA); conditions: membranes of CHO cells expressing human H3
T1 construct: expressed in transfected cells
Description: Cell pellets were resuspended in 5 mM Tris-HCl, pH 7.5 with 5 nM EDTA and a cocktail of protease inhibitors (Complete Protease Inhibitor Tablets, Roche Diagnostics). Cells were disrupted using a polytron cell homogenizer and the suspension was centrifuged at 1000×g for 10 minutes at 4° C. The pellet was discarded and the supernatant centrifuged at 40,000×g for 30 min at 4° C. This membrane pellet was washed in membrane buffer containing 50 mM Tris-HCl, pH 7.5 with 0.6 mM EDTA, 5 mM MgCl2 and protease inhibitors, recentrifuged as above and the final pellet resuspended in membrane buffer plus 250 mM sucrose and frozen at −80° C.
(§1) Membranes were resuspended in 50 mM Tris HCl (pH 7.4), 5 mM MgCl2, 0.1% BSA. The membrane suspensions (10 μg protein per well) were incubated in a 96 well microtiter plate with [^3H]-N-alpha-methylhistamine (approximately 1 nM final concentration), test compounds at various concentrations (0.01 nM-30 μM) and scintillation proximity beads (Perkin Elmer, FlashBlueGPCR Scintillating Beads) in a final volume of 80 μl for 4 hours at room temperature, protected from light. Non-specific binding was determined in the presence of 10 μM clobenpropit. Radioligand bound to receptor, and therefore in proximity to the scintillation beads, was measured using a MicroBeta scintillation counter.

[2] = target: T2, rat histamine H3 receptor (Rattus norvegicus, UniProt Q9QYN8); test: Rat H3 radioligand binding ([3H]-N-alpha-methylhistamine, SPA)
T2 construct: encoding the entire 445-amino-acid rat histamine H3 receptor; expressed in transfected cells
Source text: The rat H3 receptor cDNA was PCR amplified from reverse-transcribed RNA pooled from rat thalamus, hypothalamus, striatum and prefrontal cortex with a sequence corresponding to by #338-1672 of Genbank file #NM_053506, encoding the entire 445-amino-acid rat histamine H3 receptor. This was engineered into the pIRES-neo3 mammalian expression vector, which was stably transfected into the CHO-A3 cell line (Euroscreen, Belgium), followed by clonal selection by limiting dilution. Cells were harvested and cell pellets were frozen (−80° C.). Cell pellets were resuspended in 5 mM Tris-HCl, pH 7.5 with 5 nM EDTA and a cocktail of protease inhibitors (Complete Protease Inhibitor Tablets, Roche Diagnostics). Cells were disrupted using a polytron cell homogenizer and the suspension was centrifuged at 1000×g for 10 minutes at 4° C. The pellet was discarded and the supernatant centrifuged at 40,000×g for 30 min at 4° C. This membrane pellet was washed in membrane buffer containing 50 mM Tris-HCl, pH 7.5 with 0.6 mM EDTA, 5 mM MgCl2 and protease inhibitors, recentrifuged as above and the final pellet resuspended in membrane buffer plus 250 mM sucrose and frozen at −80° C.
as §1

[3] = membranes of CHO-A3 cells expressing rat H3, [3H]-N-alpha-methylhistamine, read-out: Rat H3 Ki

T1 sequence (Q9Y5N1 whole entry): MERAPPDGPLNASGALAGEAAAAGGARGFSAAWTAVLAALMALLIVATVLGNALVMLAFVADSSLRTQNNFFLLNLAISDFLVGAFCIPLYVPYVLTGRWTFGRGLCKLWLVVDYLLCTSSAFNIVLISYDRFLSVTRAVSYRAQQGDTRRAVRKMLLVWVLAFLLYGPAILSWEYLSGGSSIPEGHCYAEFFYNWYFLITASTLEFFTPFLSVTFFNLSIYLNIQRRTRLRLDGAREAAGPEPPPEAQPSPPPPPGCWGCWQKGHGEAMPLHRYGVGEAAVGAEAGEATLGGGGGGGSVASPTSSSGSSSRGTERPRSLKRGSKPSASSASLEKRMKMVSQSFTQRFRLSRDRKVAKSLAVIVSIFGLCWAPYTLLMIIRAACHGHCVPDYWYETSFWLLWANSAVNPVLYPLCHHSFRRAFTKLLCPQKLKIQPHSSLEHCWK
T2 sequence (Q9QYN8 whole entry): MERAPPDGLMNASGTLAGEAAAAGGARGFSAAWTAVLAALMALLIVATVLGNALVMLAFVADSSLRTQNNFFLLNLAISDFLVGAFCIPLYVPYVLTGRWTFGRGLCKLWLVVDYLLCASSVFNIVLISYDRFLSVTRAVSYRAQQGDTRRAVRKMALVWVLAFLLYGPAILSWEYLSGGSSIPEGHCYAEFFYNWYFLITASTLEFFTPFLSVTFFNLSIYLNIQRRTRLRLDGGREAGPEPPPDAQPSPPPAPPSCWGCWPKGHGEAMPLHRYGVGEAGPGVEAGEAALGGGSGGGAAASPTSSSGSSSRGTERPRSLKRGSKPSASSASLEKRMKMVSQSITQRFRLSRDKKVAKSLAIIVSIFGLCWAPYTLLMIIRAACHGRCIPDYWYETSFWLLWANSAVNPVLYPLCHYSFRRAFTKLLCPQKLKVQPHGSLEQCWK

Row | Ki [1] [nM] | Ki [2, 3] [nM] | Compound | Ki [2] [nM]
1 | 0.1 to 100 | 0.1 to 100 | C[C@@H]1CCCN1CCCOc1ccc(C(=O)CN2CCCC(F)(F)C2)cc1 [Example 52, 2-(3,3-Difluoro-piperidin-1-yl)-1-{4-[3-((R)-2-methyl-pyrrolidin-1-yl)-propoxy]-phenyl}-ethanone] | –
2 | 0.1 to 100 | 0.1 to 100 | C[C@@H]1CCCN1CCCOc1ccc(C(=O)CN2CCCCC2)cc1 [Example 8, 1-{4-[3-((R)-2-Methyl-pyrrolidin-1-yl)-propoxy]-phenyl}-2-piperidin-1-yl-ethanone] | –
3 | 0.1 to 100 | 0.1 to 100 | CC1CCCN1CCCOc1ccc(C(CN2CCOCC2)=NOC(C)(C)C)cc1 (racemic) [Example 165] | –
4 | > 1000 | > 1000 | O=C(CN1CCOCC1)c1ccc(OCCCN2CCCC2=O)cc1 [Example 67, 1-{3-[4-(2-Morpholin-4-yl-acetyl)-phenoxy]-propyl}-pyrrolidin-2-one] | –
5 | 0.1 to 100 | 0.1 to 100 | C[C@@H]1CCCN1CCCOc1ccc(C(=O)CN2CCO[C@@H](c3ccccc3)C2)cc1 [Example 39, 1-{4-[3-((R)-2-Methyl-pyrrolidin-1-yl)-propoxy]-phenyl}-2-((S)-2-phenyl-morpholin-4-yl)-ethanone] | –
6 | 0.1 to 100 | 0.1 to 100 | Cc1cc(C)cc(C(=O)N2CCN(CC(=O)c3ccc(OCCCN4CCC[C@H]4C)cc3)CC2)c1 [Example 140, 2-[4-(3,5-Dimethyl-benzoyl)-piperazin-1-yl]-1-{4-[3-((R)-2-methyl-pyrrolidin-1-yl)-propoxy]-phenyl}-ethanone] | –
7 | 0.1 to 100 | 0.1 to 100 | C[C@@H]1CN(CC(=O)c2ccc(OCCCN3CCC[C@H]3C)cc2)C[C@H](C)O1 [Example 38, 2-((2R,6S)-2,6-Dimethyl-morpholin-4-yl)-1-{4-[3-((R)-2-methyl-pyrrolidin-1-yl)-propoxy]-phenyl}-ethanone] | –
8 | 0.1 to 100 | 101 to 500 | Cc1cc(C(=O)CN2CCC(F)(F)CC2)ccc1OCCCN1CCC[C@H]1C [Example 136, 2-(4,4-Difluoro-piperidin-1-yl)-1-{3-methyl-4-[3-((R)-2-methyl-pyrrolidin-1-yl)-propoxy]-phenyl}-ethanone] | –
9 | 0.1 to 100 | 0.1 to 100 | C[C@@H]1CCCN1CCCOc1ccc(C(=O)CN2Cc3ccc(F)cc3C2)cc1 [Example 86, 2-(5-Fluoro-1,3-dihydro-isoindol-2-yl)-1-{4-[3-((R)-2-methyl-pyrrolidin-1-yl)-propoxy]-phenyl}-ethanone] | –
10 | 101 to 500 | > 1000 | COc1cc(C(=O)CN2CCN(C(=O)c3ccccc3)CC2)ccc1OCCCN1CCC[C@H]1C [Example 112, 2-(4-Benzoyl-piperazin-1-yl)-1-{3-methoxy-4-[3-((R)-2-methyl-pyrrolidin-1-yl)-propoxy]-phenyl}-ethanone] | –
11 | 0.1 to 100 | 0.1 to 100 | Cc1nc2ccccc2n1CC(=O)c1ccc(OCCCN2CCC[C@H]2C)cc1 [Example 142, 2-(2-Methyl-benzoimidazol-1-yl)-1-{4-[3-((R)-2-methyl-pyrrolidin-1-yl)-propoxy]-phenyl}-ethanone] | –
12 | 0.1 to 100 | 101 to 500 | C[C@@H]1CCCN1CCCOc1ccc(C(=O)CN2CCCCC2=O)cc1 [Example 22, 1-(2-{4-[3-((R)-2-Methyl-pyrrolidin-1-yl)-propoxy]-phenyl}-2-oxo-ethyl)-piperidin-2-one] | –
13 | 0.1 to 100 | 101 to 500 | C[C@@H]1CCCN1CCCOc1ccc(/C(CN2CCOC(c3ccccc3)C2)=N/OC(C)(C)C)cc1 (some centres unmarked) [Example 168] | –
14 | 101 to 500 | 501 to 1000 | O=C(CN1CCOCC1)c1ccc(OCCCN2CCCC2)cc1 [Example 15, 2-Morpholin-4-yl-1-[4-(3-pyrrolidin-1-yl-propoxy)-phenyl]-ethanone] | –
15 | 0.1 to 100 | 0.1 to 100 | C[C@@H]1CCCN1CCCOc1ccc(C(=O)CN2CCN(C(=O)c3cccc4ccccc34)CC2)cc1 [Example 133, 1-{4-[3-((R)-2-Methyl-pyrrolidin-1-yl)-propoxy]-phenyl}-2-[4-(naphthalene-1-carbonyl)-piperazin-1-yl]-ethanone] | –
16 | 0.1 to 100 | 101 to 500 | C[C@@H]1CCCN1CCCOc1ccc(C(=O)CN2CCCC2=O)cc1 [Example 21, 1-(2-{4-[3-((R)-2-Methyl-pyrrolidin-1-yl)-propoxy]-phenyl}-2-oxo-ethyl)-pyrrolidin-2-one] | –
17 | 0.1 to 100 | 0.1 to 100 | C[C@@H]1CCCN1CCCOc1ccc(C(=O)CN2CCN(C(=O)C(F)(F)F)CC2)cc1 [Example 64] | –
18 | 0.1 to 100 | 0.1 to 100 | C[C@@H]1CCCN1CCCOc1ccc(C(=O)CN2CCC(F)(F)C2)cc1 [Example 60, 2-(3,3-Difluoro-pyrrolidin-1-yl)-1-{4-[3-((R)-2-methyl-pyrrolidin-1-yl)-propoxy]-phenyl}-ethanone] | –
19 | 0.1 to 100 | 0.1 to 100 | CC(C)COC(=O)N1CCN(CC(=O)c2ccc(OCCCN3CCC[C@H]3C)cc2)CC1 [Example 131, 4-(2-{4-[3-((R)-2-Methyl-pyrrolidin-1-yl)-propoxy]-phenyl}-2-oxo-ethyl)-piperazine-1-carboxylic acid isobutyl ester] | –
20 | 0.1 to 100 | 0.1 to 100 | C[C@@H]1CCCN1CCCOc1ccc(C(=O)CN2CCO[C@H](c3ccccc3)C2)cc1 [Example 40, 1-{4-[3-((R)-2-Methyl-pyrrolidin-1-yl)-propoxy]-phenyl}-2-((R)-2-phenyl-morpholin-4-yl)-ethanone] | –
21 | 0.1 to 100 | 0.1 to 100 | C[C@@H]1CCCN1CCCOc1ccc(/C(CN2CCCCC2)=N/OC(C)(C)C)cc1 [Example 160] | –
22 | 0.1 to 100 | 0.1 to 100 | COC(=O)N1CCN(CC(=O)c2ccc(OCCCN3CCC[C@H]3C)c(C)c2)CC1 [Example 137, 4-(2-{3-Methyl-4-[3-((R)-2-methyl-pyrrolidin-1-yl)-propoxy]-phenyl}-2-oxo-ethyl)-piperazine-1-carboxylic acid methyl ester] | –
23 | 0.1 to 100 | 0.1 to 100 | C[C@@H]1CCCN1CCCOc1ccc(C(=O)CN2CCC(C#N)CC2)cc1 [Example 43, 1-(2-{4-[3-((R)-2-Methyl-pyrrolidin-1-yl)-propoxy]-phenyl}-2-oxo-ethyl)-piperidine-4-carbonitrile] | –
24 | 0.1 to 100 | 0.1 to 100 | C[C@@H]1CCCN1CCCOc1ccc(C(=O)CN2Cc3ccccc3C2)cc1 [Example 73, 2-(1,3-Dihydro-isoindol-2-yl)-1-{4-[3-((R)-2-methyl-pyrrolidin-1-yl)-propoxy]-phenyl}-ethanone] | –
25 | 0.1 to 100 | 0.1 to 100 | C[C@@H]1CCCN1CCCOc1ccc(/C(CN2CCCCC2=O)=N/OC(C)(C)C)cc1 [Example 167] | –
26 | 0.1 to 100 | 101 to 500 | Cc1cc(OCCCN2CCC[C@H]2C)ccc1C(=O)CN1CCOCC1 [Example 74, 1-{2-Methyl-4-[3-((R)-2-methyl-pyrrolidin-1-yl)-propoxy]-phenyl}-2-morpholin-4-yl-ethanone] | –
27 | 0.1 to 100 | 0.1 to 100 | C[C@@H]1CCCN1CCCOc1ccc(C(=O)CN2CCN(C(=O)c3ccccc3)CC2)c(F)c1 [Example 103, 2-(4-Benzoyl-piperazin-1-yl)-1-{2-fluoro-4-[3-((R)-2-methyl-pyrrolidin-1-yl)-propoxy]-phenyl}-ethanone] | –
28 | 0.1 to 100 | 0.1 to 100 | C[C@@H]1CCCN1CCCOc1ccc(C(=O)CN2CCOC(c3ccccc3)C2)cc1 (stereo partly drawn) [Example 29, 1-{4-[3-((R)-2-Methyl-pyrrolidin-1-yl)-propoxy]-phenyl}-2-(2-phenyl-morpholin-4-yl)-ethanone] | –
29 | 0.1 to 100 | 0.1 to 100 | Cc1cc(C(=O)CN2CCN(C(=O)c3ccccc3)CC2)ccc1OCCCN1CCC[C@H]1C [Example 107, 2-(4-Benzoyl-piperazin-1-yl)-1-{3-methyl-4-[3-((R)-2-methyl-pyrrolidin-1-yl)-propoxy]-phenyl}-ethanone] | –
30 | 0.1 to 100 | 101 to 500 | CC(C)N1CCC(Oc2ccc(C(=O)CN3CCOCC3)cc2)CC1 [Example 45, 1-[4-(1-Isopropyl-piperidin-4-yloxy)-phenyl]-2-morpholin-4-yl-ethanone] | –

Row | Compound | Ki [1] [nM] | Ki [2, 3] [nM] | Ki [2] [nM]
31 | CC1CCCN1CCCOc1ccc(C(=O)C(C)N2CCOCC2)cc1 (centres unmarked) [Example 27, 1-{4-[3-(2-Methyl-pyrrolidin-1-yl)-propoxy]-phenyl}-2-morpholin-4-yl-propan-1-one] | 0.1 to 100 | – | 0.1 to 100

Reference: patent US20140296212A1, “SUBSTITUTED PHENOXYPROPYLCYCLOAMINE DERIVATIVES AS HISTAMINE-3 (H3) RECEPTOR LIGANDS” (CEPHALON, INC., priority 2009, published 2014)
